{
  "source": "patent US6723753B2",
  "about": "“Substituted n-benzyl-n-phenyl aminoalcohol compounds useful for inhibiting cholesteryl ester transfer protein activity” (Pharmacia Corporation, priority 2002, dated 2004)",
  "data": [
    {"molecular_target": "T1, CETP (Homo sapiens, UniProt P11597)", "T1 sequence (P11597 18-493)": "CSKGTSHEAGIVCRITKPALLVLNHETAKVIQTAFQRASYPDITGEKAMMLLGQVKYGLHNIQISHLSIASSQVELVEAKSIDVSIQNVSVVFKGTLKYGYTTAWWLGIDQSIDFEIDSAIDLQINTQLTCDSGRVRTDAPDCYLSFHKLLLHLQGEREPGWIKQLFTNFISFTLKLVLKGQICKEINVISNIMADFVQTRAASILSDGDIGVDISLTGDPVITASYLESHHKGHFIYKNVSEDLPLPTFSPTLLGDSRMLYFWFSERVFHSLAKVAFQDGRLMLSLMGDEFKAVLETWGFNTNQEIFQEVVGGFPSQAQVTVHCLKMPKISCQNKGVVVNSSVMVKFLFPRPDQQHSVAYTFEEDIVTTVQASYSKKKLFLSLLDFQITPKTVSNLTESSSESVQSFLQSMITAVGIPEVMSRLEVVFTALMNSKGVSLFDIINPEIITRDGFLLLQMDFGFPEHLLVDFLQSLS", "test": "Assay of CETP Inhibition using Purified Components (Reconstituted Buffer Assay)", "format": "biochemical", "parameters": "made in house; host or cells: CHO cells (serum-free conditioned medium)", "settings": "Inhibition of CETP activity in reconstituted buffer assay; transfer of [3H]CE from HDL to LDL; read-out: IC50", "summary_of_the_method": "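Purified human recombinant CETP from transfected CHO cells was incubated with [^3H]CE-labeled HDL donor and LDL acceptor in Tris pH 7.4/NaCl/EDTA/1% BSA buffer for 2 h at 37 °C. LDL was then precipitated with dextran sulfate/MgCl2, filtered, and counted by liquid scintillation to give IC50 for CE transfer.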", "units": {"IC50": "nM"}, "values": [
      {"compound": "OC(CN(Cc1cccc(OC(F)(F)C(F)F)c1)c1cccc(OCc2cc(F)cc(F)c2F)c1)C(F)(F)F", "note": "(stereo not drawn) [Example 408]", "IC50": 750},
      {"compound": "OC(CN(Cc1cccc(OC(F)(F)C(F)F)c1)c1cccc(OCc2ccc(SC(F)(F)F)cc2)c1)C(F)(F)F", "note": "(stereo not drawn) [Example 409]", "IC50": 610},
      {"compound": "OC(CN(Cc1cccc(OC(F)(F)C(F)F)c1)c1cccc(OCc2ccc(F)c(C(F)(F)F)c2)c1)C(F)(F)F", "note": "(stereo not drawn) [Example 412]", "IC50": 710},
      {"compound": "OC(CN(Cc1cccc(OC(F)(F)C(F)F)c1)c1cccc(OCc2ccc(OCc3ccccc3)cc2)c1)C(F)(F)F", "note": "(stereo not drawn) [Example 413]", "IC50": 17000},
      {"compound": "OC(CN(Cc1cccc(OC(F)(F)C(F)F)c1)c1cccc(OCc2ccc(-c3ccccc3)cc2)c1)C(F)(F)F", "note": "(stereo not drawn) [Example 414]", "IC50": 4600},
      {"compound": "CCc1ccc(COc2cccc(N(Cc3cccc(OC(F)(F)C(F)F)c3)CC(O)C(F)(F)F)c2)cc1", "note": "(stereo not drawn) [Example 415]", "IC50": 290},
      {"compound": "OC(CN(Cc1cccc(OC(F)(F)C(F)F)c1)c1cccc(OCc2ccc(C(F)(F)F)cc2)c1)C(F)(F)F", "note": "(stereo not drawn) [Example 416]", "IC50": 510},
      {"compound": "Cc1c(COc2cccc(N(Cc3cccc(OC(F)(F)C(F)F)c3)CC(O)C(F)(F)F)c2)cccc1[N+](=O)[O-]", "note": "(stereo not drawn) [Example 417]", "IC50": 17000},
      {"compound": "Cc1ccc(COc2cccc(N(Cc3cccc(OC(F)(F)C(F)F)c3)CC(O)C(F)(F)F)c2)cc1C", "note": "(stereo not drawn) [Example 419]", "IC50": 190},
      {"compound": "OC(CN(Cc1cccc(OC(F)(F)C(F)F)c1)c1cccc(OCc2cccc(Cl)c2)c1)C(F)(F)F", "note": "(stereo not drawn) [Example 420]", "IC50": 270},
      {"compound": "OC(CN(Cc1cccc(OC(F)(F)C(F)F)c1)c1cccc(OCc2ccc(Br)cc2)c1)C(F)(F)F", "note": "(stereo not drawn) [Example 421]", "IC50": 490},
      {"compound": "OC(CN(Cc1cccc(OC(F)(F)C(F)F)c1)c1cccc(OCc2cc(Cl)cc(Cl)c2)c1)C(F)(F)F", "note": "(stereo not drawn) [Example 422]", "IC50": 920},
      {"compound": "Cc1cc(C)cc(COc2cccc(N(Cc3cccc(OC(F)(F)C(F)F)c3)CC(O)C(F)(F)F)c2)c1", "note": "(stereo not drawn) [Example 423]", "IC50": 130},
      {"compound": "OC(CN(Cc1cccc(OC(F)(F)C(F)F)c1)c1cccc(OCc2ccc(Cl)cc2)c1)C(F)(F)F", "note": "(stereo not drawn) [Example 424]", "IC50": 780},
      {"compound": "Cc1cccc(COc2cccc(N(Cc3cccc(OC(F)(F)C(F)F)c3)CC(O)C(F)(F)F)c2)c1F", "note": "(stereo not drawn) [Example 425]", "IC50": 340},
      {"compound": "OC(CN(Cc1cccc(OC(F)(F)C(F)F)c1)c1cccc(OCc2cccc(Oc3ccccc3)c2)c1)C(F)(F)F", "note": "(stereo not drawn) [Example 426]", "IC50": 2500},
      {"compound": "CC(C)c1ccc(COc2cccc(N(Cc3cccc(OC(F)(F)C(F)F)c3)CC(O)C(F)(F)F)c2)cc1", "note": "(stereo not drawn) [Example 427]", "IC50": 420},
      {"compound": "OC(CN(Cc1cccc(OC(F)(F)C(F)F)c1)c1cccc(OCc2cccnc2)c1)C(F)(F)F", "note": "(stereo not drawn) [Example 428]", "IC50": 6800},
      {"compound": "OC(CN(Cc1cccc(OC(F)(F)C(F)F)c1)c1cccc(OCc2nccn2Cc2ccccc2)c1)C(F)(F)F", "note": "(stereo not drawn) [Example 430]", "IC50": "> 50000"},
      {"compound": "OC(CN(Cc1cccc(OC(F)(F)C(F)F)c1)c1cccc(OCc2csc3ccc(Cl)cc23)c1)C(F)(F)F", "note": "(stereo not drawn) [Example 431]", "IC50": 12000},
      {"compound": "OC(CN(Cc1cccc(OC(F)(F)C(F)F)c1)c1cccc(OCc2ccncc2)c1)C(F)(F)F", "note": "(stereo not drawn) [Example 433]", "IC50": 5600},
      {"compound": "Nc1ccc(COc2cccc(N(Cc3cccc(OC(F)(F)C(F)F)c3)CC(O)C(F)(F)F)c2)cc1", "note": "(stereo not drawn) [Example 434, 3-[[3-[(4-aminophenyl)methoxy]phenyl][[3-(1,1,2,2-tetrafluoro-ethoxy)phenyl]methyl]amino]-1,1,1-trifluoro-2-propanol]", "IC50": "> 50000"},
      {"compound": "Nc1cccc(COc2cccc(N(Cc3cccc(OC(F)(F)C(F)F)c3)CC(O)C(F)(F)F)c2)c1", "note": "(stereo not drawn) [Example 434B, 3-[[3-[(3-aminophenyl)methoxy]phenyl][[3-(1,1,2,2-tetrafluoro-ethoxy)-phenyl]methyl]amino]-1,1,1-trifluoro-2-propanol]", "IC50": 6400},
      {"compound": "O=C(O)c1cccc(COc2cccc(N(Cc3cccc(OC(F)(F)C(F)F)c3)CC(O)C(F)(F)F)c2)c1", "note": "(stereo not drawn) [Example 435, 3-[[3-[[[3-(1,1,2,2-tetrafluoroethoxy)phenyl]methyl](3,3,3-trifluoro-2-hydroxypropyl)amino]phenoxy]methyl]benzoic Acid]", "IC50": "> 50000"}
    ]}
  ]
}
